Reference: patent US20040063680A1, “Method of treating stroke” (priority 2003, published 2004)

melting point: 155 to 157 °C
SMILES: CC(C)S(=O)(=O)NCC(C)(F)c1ccc(-c2ccc(CC#N)cc2)cc1 (stereo not shown) [Example 9, 2-{4-[4-(1-fluoro-1-methyl-2-{[(methylethyl)sulfonyl]amino}ethyl)phenyl]phenyl}ethanenitrile]
